Experimental data: patent US20120095055A1, “HEXAHYDROCYCLOPENTYL[f]INDAZOLE 5-HYDROXYMETHYL ETHANOLS AND DERIVATIVES THEREOF AS SELECTIVE GLUCOCORTICOID RECEPTOR MODULATORS” (Merck Sharp & Dohme, Corp., priority 2009, published 2012)

Target: T1, human GR (Homo sapiens, UniProt P04150)
T1 construct: naturally expresses the human GR; endogenous in cells
T1 sequence (P04150 1-777): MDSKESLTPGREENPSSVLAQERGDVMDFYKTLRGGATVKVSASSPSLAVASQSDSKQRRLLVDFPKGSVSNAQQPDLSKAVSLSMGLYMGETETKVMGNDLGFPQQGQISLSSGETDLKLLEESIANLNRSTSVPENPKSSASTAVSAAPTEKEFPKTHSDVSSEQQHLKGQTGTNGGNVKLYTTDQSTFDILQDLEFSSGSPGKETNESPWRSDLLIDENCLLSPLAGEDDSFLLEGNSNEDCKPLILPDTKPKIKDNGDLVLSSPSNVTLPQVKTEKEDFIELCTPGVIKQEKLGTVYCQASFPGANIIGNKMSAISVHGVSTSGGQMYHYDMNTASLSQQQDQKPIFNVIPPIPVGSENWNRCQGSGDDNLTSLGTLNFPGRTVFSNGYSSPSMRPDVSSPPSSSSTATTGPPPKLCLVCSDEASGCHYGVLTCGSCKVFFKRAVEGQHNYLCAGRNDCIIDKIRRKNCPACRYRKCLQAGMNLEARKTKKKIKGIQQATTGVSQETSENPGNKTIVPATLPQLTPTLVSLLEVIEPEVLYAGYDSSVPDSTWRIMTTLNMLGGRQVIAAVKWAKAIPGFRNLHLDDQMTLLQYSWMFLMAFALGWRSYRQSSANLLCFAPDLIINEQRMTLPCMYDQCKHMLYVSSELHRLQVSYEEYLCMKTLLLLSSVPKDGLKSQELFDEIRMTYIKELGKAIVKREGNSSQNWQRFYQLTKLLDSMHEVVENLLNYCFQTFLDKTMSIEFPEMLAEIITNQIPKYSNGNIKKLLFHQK
Test: Transrepression Assay (GITAR), TNFα-β-lactamase reporter in U937 cells
Format: cell-based
Settings: for Transrepression U937 Cells GITAR Emax (%): activity repressed by 100 nM dexamethasone set as 100%; for EC50: inflection point (IP), TNFα promoter β-lactamase reporter, PMA/LPS; for Emax: U-937, activity repressed by 100 nM dexamethasone set as 100%
Text: This assay assesses the ability of test compounds to control transcription from the TNFα-β-lactamase reporter gene in U937 cells, a human myelomonocytic leukemia cell line that naturally expresses the human GR. The assay measures compound dependent-repression of the TNFa promoter linked to a reporter gene.
The human U937 cells that had been stablely transfected with the TNF-α promoter driving β-lactamase are used for this assay. U937 cells contain an endogenous glucocorticoid receptor (GR). Cells are maintained in RPMI 1640 Growth medium (Gibco Cat#11875-093) containing 25 mM HEPES, 10% FBS, 2 mM L-Glutamine, 1 mM Sodium pyruvate, 25 μg/ml Gentamicin (Gibco Cat#15710-064), 1:1000 2-Mercaptoethanol (Gibco Cat#21985-023) and 0.8 mg/ml G418 (Gibco Cat#10131-027). The density of the cells in the flask needs to be about 1×106-3×10^6/ml at the time of harvest. Usually, the cells are split to 1.2˜1.4×10^5/ml (1:10) 3 days prior to the assay. 50,000 cells/well are plated in 96 well black-walled plates the day of assay. Test compounds are added 10 μL/well, and cells are incubated at 37° C. for 30˜45 min. For assaying compounds, first dilute 1:10 in DMSO to make 1 mM, then further dilute 1:100 in medium to make 10× stock prior to adding to the cells. Add 50 ng/ml PMA (Sigma, cat# P8139) 10 μL/well to a final concentration 5 ng/ml, and 1 μg/ml LPS (Sigma, cat# L4130) 10 μL/well to a final concentration 100 ng/ml. Incubate cells at 37° C. overnight for ˜18 hr. PMA is stored frozen as 100 μg/ml stock in DMSO. Dilute 1:10 in DMSO for a working stock of 10 μg/ml and store at −20 C. For assaying, dilute the 10 μg/ml working stock 1:200 in medium to make a 10× solution (50 ng/ml). Store frozen LPS at 1 mg/ml in PBS, dilute 1:1000 in medium to make 10× (1 μg/ml) for the assay. Add 6× loading buffer (CCF2-AM) 20 μL/well, and incubate at room temperature for 70˜90 min. […] The activity repressed by 100 nM dexamethasone alone is set as 100% activity.

Row | SMILES | Transrepression U937 Cells GITAR Emax (%) | EC50 [nM] | Emax [%]
1 | C[C@]12Cc3cnn(-c4ccccc4)c3C=C1CC[C@@]2(CO)CC(O)c1ccccn1 (single isomer, unassigned) [Example 23a] | – | 22.8 | 82.6
2 | C[C@]12Cc3cnn(-c4ccccc4)c3C=C1CC[C@@]2(CO)CC(O)c1ccccn1 (single isomer, unassigned) [Example 23b] | 83.7 | 49.6 | –
3 | CC(O)(C[C@]1(CO)CCC2=Cc3c(cnn3-c3ccc(F)cc3)C[C@@]21C)c1cccnc1 (single isomer, unassigned) [Example 25a] | – | 293 | 61.3
4 | CC(O)(C[C@]1(CO)CCC2=Cc3c(cnn3-c3ccc(F)cc3)C[C@@]21C)c1cccnc1 (single isomer, unassigned) [Example 25b] | 69.8 | 186 | –
5 | C[C@]12Cc3cnn(-c4cccc(F)c4)c3C=C1CC[C@@]2(CO)CC(O)c1cccnc1 (single isomer, unassigned) [Example 27a] | – | 598 | 64.2
6 | C[C@]12Cc3cnn(-c4cccc(F)c4)c3C=C1CC[C@@]2(CO)CC(O)c1cccnc1 (single isomer, unassigned) [Example 27b] | 71.9 | 334 | –
7 | C[C@]12Cc3cnn(-c4ccc(F)cc4)c3C=C1CC[C@@]2(CO)CC(O)C(F)(F)F (single isomer, unassigned) [Example 28a] | – | 54.3 | 81.2
8 | C[C@]12Cc3cnn(-c4ccc(F)cc4)c3C=C1CC[C@@]2(CO)CC(O)C(F)(F)F (single isomer, unassigned) [Example 28b] | 80.2 | 90.9 | –
9 | C[C@]12Cc3cnn(-c4ccccc4)c3C=C1CC[C@@]2(CO)CC(O)c1cccnc1 (single isomer, unassigned) [Example 29a] | – | 176 | 66.6
10 | C[C@]12Cc3cnn(-c4ccccc4)c3C=C1CC[C@@]2(CO)CC(O)c1cccnc1 (single isomer, unassigned) [Example 29b] | 60.9 | 103 | –

Further lines, results first:

Row | Transrepression U937 Cells GITAR Emax (%) | EC50 [nM] | Emax [%] | SMILES
11 | 91.3 | 18.7 | – | COc1cccnc1C(O)C[C@]1(CO)CCC2=Cc3c(cnn3-c3ccc(F)cc3)C[C@@]21C (single isomer, unassigned) [Example 21b]
12 | – | 18.7 | 90.9 | C[C@]12Cc3cnn(-c4ccc(F)cc4)c3C=C1CC[C@@]2(CO)CC(O)c1ccc(F)cn1 (single isomer, unassigned) [Example 22a]
13 | 90.6 | 14.1 | – | C[C@]12Cc3cnn(-c4ccc(F)cc4)c3C=C1CC[C@@]2(CO)CC(O)c1ccc(F)cn1 (single isomer, unassigned) [Example 22b]
14 | – | 447 | 63 | COc1ccc(C(O)C[C@]2(CO)CCC3=Cc4c(cnn4-c4ccc(F)cc4)C[C@@]32C)nc1 (single isomer, unassigned) [Example 24a]
15 | 57.9 | 376 | – | COc1ccc(C(O)C[C@]2(CO)CCC3=Cc4c(cnn4-c4ccc(F)cc4)C[C@@]32C)nc1 (single isomer, unassigned) [Example 24b]
16 | 82.1 | 80.8 | – | COc1cccnc1C(O)C[C@]1(CO)CCC2=Cc3c(cnn3-c3cccc(F)c3)C[C@@]21C (single isomer, unassigned) [Example 26a]
17 | 51.8 | 1510 | – | COc1cccnc1C(O)C[C@]1(CO)CCC2=Cc3c(cnn3-c3cccc(F)c3)C[C@@]21C (single isomer, unassigned) [Example 26b]
18 | – | 28.2 | 104 | C[C@]12Cc3cnn(-c4ccc(F)cc4)c3C=C1CC[C@@]2(CO)CC(O)c1ccccc1F (stereo partly drawn) [Example 4, 1-(2-fluorophenyl)-2-[(4αS,5R)-1-(4-fluorophenyl)-5-(hydroxymethyl)-4α-methyl-1,4,4α,5,6,7-hexahydrocyclopenta[f]indazol-5-yl]ethanol]
